Experiments:
A2780 [1] = test: Antiproliferative activity against human A2780 cells assessed as cell growth inhibition measured after 72 hrs by CellTiter 96 non-radioactive cell proliferation assay; type: functional, cell-based; settings: A2780, 72 h
[2] = molecular target: T1, Stress-70 protein, mitochondrial (Homo sapiens, UniProt P38646); test: Binding affinity to mortalin substrate binding domain (unknown origin)
[3] = molecular target: T1, Stress-70 protein, mitochondrial
Description: Binding affinity to mortalin substrate binding domain (unknown origin) assessed as change in Gibbs free energy

A2780 [4] = test: Antiproliferative activity against human A2780 cells assessed as cell growth inhibition at 2 to 8 uM measured after 72 hrs by CellTiter 96 non-radioactive cell proliferation assay relative to control; type: functional

T1 sequence (P38646 whole entry, the tested form may be a part): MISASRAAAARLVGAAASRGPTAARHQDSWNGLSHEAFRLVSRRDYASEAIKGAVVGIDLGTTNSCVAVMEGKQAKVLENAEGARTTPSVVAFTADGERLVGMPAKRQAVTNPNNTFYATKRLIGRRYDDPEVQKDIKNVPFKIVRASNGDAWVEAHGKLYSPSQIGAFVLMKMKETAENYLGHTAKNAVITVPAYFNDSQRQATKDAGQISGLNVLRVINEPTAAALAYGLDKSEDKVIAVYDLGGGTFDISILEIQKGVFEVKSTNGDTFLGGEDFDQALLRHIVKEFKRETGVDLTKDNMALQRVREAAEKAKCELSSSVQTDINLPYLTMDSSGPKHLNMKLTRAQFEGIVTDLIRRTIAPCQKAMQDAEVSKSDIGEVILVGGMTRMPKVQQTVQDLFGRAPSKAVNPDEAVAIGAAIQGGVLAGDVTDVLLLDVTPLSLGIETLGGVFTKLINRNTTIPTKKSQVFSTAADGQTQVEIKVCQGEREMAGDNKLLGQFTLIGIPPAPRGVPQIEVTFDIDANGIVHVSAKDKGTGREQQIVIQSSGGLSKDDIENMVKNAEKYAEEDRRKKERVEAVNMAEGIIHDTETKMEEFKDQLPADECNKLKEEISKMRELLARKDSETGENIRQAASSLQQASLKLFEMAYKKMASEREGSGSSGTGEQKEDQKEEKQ

IC50 (A2780 [1]) [µM] | deltaG [3] [kJ/mol] | Structure (SMILES) | Kd [2] [µM] | Efficacy (A2780 [4]) [%]
3.8 | -37.2 | CN1c2ccc(NC(=O)Nc3ccc([N+](=O)[O-])cc3)cc2C(C)(C)C(=O)C1(C)C | 0.3 | 
10 |  | CN1c2ccc(NC(=S)Nc3ccc([N+](=O)[O-])cc3)cc2C(C)(C)C(O)C1(C)C (configuration not stated) |  | 25
13.1 | -31.8 | CN1c2ccc(NC(=S)Nc3ccc(OC(F)(F)F)cc3)cc2C(C)(C)C(O)C1(C)C (configuration not stated) | 2.9 | 
2.58 | -33.5 | CN1c2ccc(NC(=O)Nc3ccc(C(F)(F)F)cc3)cc2C(C)(C)C(=O)C1(C)C | 1.5 | 
7.1 | -30.1 | CC1(C)CCNc2ccc(NC(=S)Nc3ccc(OC(F)(F)F)cc3)cc21 | 5.4 | 
4.5 | -36.4 | CN1c2ccc(NC(=S)Nc3ccc([N+](=O)[O-])cc3)cc2C(C)(C)CC1(C)C | 0.5 | 
4.4 | -34.3 | CN1c2ccc(NC(=S)Nc3ccc([N+](=O)[O-])cc3)cc2C(C)(C)C(=O)C1(C)C | 1.1 | 
6.9 | -34.3 | CC1(C)CCNc2ccc(NC(=O)Nc3ccc([N+](=O)[O-])cc3)cc21 | 1.1 | 
8.4 | -33.5 | CN1c2ccc(NC(=O)Nc3ccc([N+](=O)[O-])cc3)cc2C(C)(C)C(O)C1(C)C (configuration not stated) | 1.6 | 
7.1 | -33.1 | CC1(C)CCNc2ccc(NC(=S)Nc3ccc([N+](=O)[O-])cc3)cc21 | 1.6 | 
3.9 |  | CN1c2ccc(NC(=S)Nc3ccc(C(F)(F)F)cc3)cc2C(C)(C)C(=O)C1(C)C |  | 90.8
6.7 | -35.1 | CN1c2ccc(NC(=O)Nc3ccc(C(F)(F)F)cc3)cc2C(C)(C)C(O)C1(C)C (configuration not stated) | 0.7 | 
6 | -31.4 | CC1(C)CCNc2ccc(NC(=S)Nc3ccc(C(F)(F)F)cc3)cc21 | 3.3 | 
7.6 | -32.2 | CN1c2ccc(NC(=S)Nc3ccc(C(F)(F)F)cc3)cc2C(C)(C)C(O)C1(C)C (configuration not stated) | 2.3 | 
6.6 | -35.6 | CC1(C)CC[N+](C)(C)c2ccc(NC(=O)Nc3ccc([N+](=O)[O-])cc3)cc21 | 0.7 | 
7.8 | -34.3 | CN1c2ccc(NC(=O)Nc3ccc(OC(F)(F)F)cc3)cc2C(C)(C)C(O)C1(C)C (configuration not stated) | 1.1 | 
 | -35.6 | CC1(C)CC(C)(C)c2cc(NC(=S)Nc3ccc([N+](=O)[O-])cc3)ccc2S1 [SHETA-2] | 0.6 | 
7.7 | -34.3 | CN1c2ccc(NC(=O)Nc3ccc(N)cc3)cc2C(C)(C)C(=O)C1(C)C | 1.1 | 
5.4 | -32.2 | CN1c2ccc(NC(=S)Nc3ccc(OC(F)(F)F)cc3)cc2C(C)(C)C(=O)C1(C)C | 2.4 | 
2.4 | -33.1 | CN1c2ccc(NC(=O)Nc3ccc(OC(F)(F)F)cc3)cc2C(C)(C)C(=O)C1(C)C | 1.8 | 

— ChEMBL document CHEMBL4610006, “Tetrahydroquinoline units in flexible heteroarotinoids (Flex-Hets) convey anti-cancer properties in A2780 ovarian cancer cells” (Bioorg Med Chem, 2020)
